{"source": "ChEMBL document CHEMBL6074686", "about": "(Eur J Med Chem, 2025)", "key": {"MCF7 [1]": {"tested_on": "MCF7", "experiment": "Inhibition of cell migration in human MCF7 cells assessed as wound closure at 20 nM incubated for 24 hrs by wound healing assay (reference value: 44.5 +/- 8.8%)", "format": "functional", "set-up": "scale not given: the % may be the effect or the level left"}, "[2]": {"experiment": "Toxicity in female BALB/c nude mouse xenografted with human SK-OV-3 cells assessed as effect on physiological status at 15 mg/kg, administered via tail vein for 5 days and measured daily", "format": "organism-based", "conditions": "in vivo, iv, 120 h, time 5 day"}, "SK-OV-3 [3]": {"tested_on": "SK-OV-3", "experiment": "Antitumor activity against human SK-OV-3 cells xenografted xenografted in female BALB/c nude mouse assessed as downregulation of CD-31 expression level in tumor at 10 mg/kg, […] via tail vein once every 2 to 3 days by immunohistochemistry analysis", "format": "functional, organism-based", "conditions": "time 2-3 day"}, "SK-OV-3 [4]": {"tested_on": "SK-OV-3", "experiment": "Inhibition of cell migration in human SK-OV-3 cells assessed as ratio of migrated cells at 2.5 nM incubated for 24 hrs by Transwell assay (reference value: 100 %)", "format": "functional", "set-up": "scale not given: the % may be the effect or the level left"}, "MCF7 [5]": {"tested_on": "MCF7", "experiment": "Induction of apoptosis in human MCF7 cells assessed as downregulation of Bax expression at 25 to 50 nM incubated for 24 hrs by Western blotting analysis", "format": "functional, cell-based", "conditions": "dose 25-50 nM"}, "SK-OV-3 [6]": {"tested_on": "SK-OV-3", "experiment": "Antitumor activity against human SK-OV-3 cells xenografted in female BALB/c nude mouse assessed as tumor growth inhibition at 5 mg/kg, […] via tail vein once every 2 to 3 days", "format": "functional", "conditions": "time 2-3 day, read-out: TGI"}, "SK-OV-3 [7]": {"tested_on": "SK-OV-3", "experiment": "Inhibition of cell migration in human SK-OV-3 cells incubated for 24 hrs by Transwell assay", "format": "functional, cell-based", "conditions": "dose 10-20 nM"}, "SK-OV-3 [8]": {"tested_on": "SK-OV-3", "experiment": "Induction of apoptosis in human SK-OV-3 cells assessed as upregulation of cleaved-PARP expression at 25 to 50 nM incubated for 24 hrs by Western blotting analysis", "format": "functional, cell-based", "conditions": "dose 25-50 nM"}, "MCF7 [9]": {"tested_on": "MCF7", "experiment": "Antitumor activity against human MCF7 cells assessed as reduction in cell viability incubated for 72 hrs by CCK8 assay", "format": "functional, cell-based", "conditions": "MCF7, 72 h"}, "SK-OV-3 [10]": {"tested_on": "SK-OV-3", "experiment": "Antitumor activity against human SK-OV-3 cells xenografted xenografted in female BALB/c nude mouse assessed as decrease in Ki-67 expression level in tumor at 10 mg/kg, […] via tail vein once every 2 to 3 days by immunohistochemistry analysis", "format": "functional, organism-based", "conditions": "time 2-3 day"}, "MCF7 [11]": {"tested_on": "MCF7", "experiment": "Inhibition of cell migration in human MCF7 cells assessed as wound closure at 5 nM incubated for 24 hrs by wound healing assay (reference value: 44.5 +/- 8.8%)", "format": "functional", "set-up": "scale not given: the % may be the effect or the level left"}, "SK-OV-3 [12]": {"tested_on": "SK-OV-3", "experiment": "Inhibition of cell migration in human SK-OV-3 cells assessed as wound closure ratio at 50 nM incubated for 24 hrs by wound healing assay (reference value: 100%)", "format": "functional", "set-up": "scale not given: the % may be the effect or the level left"}, "MCF7 [13]": {"tested_on": "MCF7", "experiment": "Inhibition of cell migration in human MCF7 cells assessed as increase in cell density at 20 nM incubated for 24 hrs by wound healing assay", "format": "functional, cell-based"}, "[14]": {"experiment": "Toxicity in female BALB/c nude mouse xenografted with human SK-OV-3 cells assessed as pathological changes in liver at 5 to 10 mg/kg, […] via tail vein once every 2 to 3 days by H and E staining based analysis", "format": "organism-based", "conditions": "in vivo, dose lower 5 mg/kg, time lower 2 day, dose upper 10 mg/kg, time upper 3 day"}, "[15]": {"experiment": "Toxicity in female BALB/c nude mouse xenografted with human SK-OV-3 cells assessed as drug tolerance by measuring lethargy at 30 mg/kg, administered via tail vein for 5 days and measured daily", "format": "organism-based", "conditions": "in vivo, iv, 120 h, time 5 day"}, "MCF7 [16]": {"tested_on": "MCF7", "experiment": "Inhibition of cell migration in human MCF7 cells assessed as area of migrated cells at 3.125 nM incubated for 24 hrs by crystal violet staining based inverted microscopic analysis (reference value: 18.5 +/- 0.3 mm^3)", "format": "functional"}, "MCF7 [17]": {"tested_on": "MCF7", "experiment": "Induction of apoptosis in human MCF7 cells assessed as upregulation of cleaved-PARP expression at 25 to 50 nM incubated for 24 hrs by Western blotting analysis", "format": "functional, cell-based", "conditions": "dose 25-50 nM"}, "SK-OV-3 [18]": {"tested_on": "SK-OV-3", "experiment": "Induction of apoptosis in human SK-OV-3 cells assessed as Bax expression at 25 to 50 nM incubated for 24 hrs by Western blotting analysis", "format": "functional, cell-based", "conditions": "dose 25-50 nM"}, "SK-OV-3 [19]": {"tested_on": "SK-OV-3", "experiment": "Induction of cell cycle arrest in human SK-OV-3 cells assessed as increase in G2/M phase cells incubated for 24 hrs PI staining based flow cytometric analysis", "format": "functional", "conditions": "dose 2.5-40 nM"}, "MDA-MB-231": {"tested_on": "MDA-MB-231", "experiment": "Antitumor activity against human MDA-MB-231 cells assessed as reduction in cell viability incubated for 72 hrs by CCK8 assay", "conditions": "MDA-MB-231, 72 h"}, "SK-OV-3 [20]": {"tested_on": "SK-OV-3", "experiment": "Antitumor activity against human SK-OV-3 cells xenografted xenografted in female BALB/c nude mouse assessed as upregulation of cleaved PARP expression level in tumor at 5 to 10 mg/kg, […] via tail vein once every 2 to 3 days by immunohistochemistry analysis", "format": "functional, organism-based", "conditions": "dose 5-10 mg/kg, time 2-3 day"}, "MCF7 [21]": {"tested_on": "MCF7", "experiment": "Induction of apoptosis in human MCF7 cells assessed as downregulation of cleaved-PARP expression at 100 nM incubated for 24 hrs by Western blotting analysis", "format": "functional, cell-based"}, "[22]": {"experiment": "Toxicity in female BALB/c nude mouse xenografted with human SK-OV-3 cells assessed as pathological changes in heart at 5 to 10 mg/kg, […] via tail vein once every 2 to 3 days by H and E staining based analysis", "format": "organism-based", "conditions": "in vivo, dose lower 5 mg/kg, time lower 2 day, dose upper 10 mg/kg, time upper 3 day"}, "MCF7 [23]": {"tested_on": "MCF7", "experiment": "Inhibition of cell migration in human MCF7 cells assessed as wound closure at 10 nM incubated for 24 hrs by wound healing assay (reference value: 44.5 +/- 8.8%)", "format": "functional", "set-up": "scale not given: the % may be the effect or the level left"}, "SK-OV-3 [24]": {"tested_on": "SK-OV-3", "experiment": "Induction of cell cycle arrest in human SK-OV-3 cells assessed as downregulation of Cdc-2 expression at 100 nM incubated for 24 hrs by Western blotting analysis", "format": "functional, cell-based"}, "MCF7 [25]": {"tested_on": "MCF7", "experiment": "Inhibition of cell migration in human MCF7 cells assessed as increase in cell density at 0 to 10 nM incubated for 24 hrs by wound healing assay", "format": "functional, cell-based", "conditions": "dose 0-10 nM"}, "SK-OV-3 [26]": {"tested_on": "SK-OV-3", "experiment": "Inhibition of cell migration in human SK-OV-3 cells assessed as ratio of migrated cells at 20 nM incubated for 24 hrs by Transwell assay (reference value: 100 %)", "format": "functional", "set-up": "scale not given: the % may be the effect or the level left"}, "[27]": {"experiment": "Toxicity in female BALB/c nude mouse xenografted with human SK-OV-3 cells assessed as drug tolerance reduction in food intake at 30 mg/kg, administered via tail vein for 5 days and measured daily", "format": "organism-based", "conditions": "in vivo, iv, 120 h, time 5 day"}, "MCF7 [28]": {"tested_on": "MCF7", "experiment": "Inhibition of cell migration in human MCF7 cells assessed as wound closure ratio at 2.5 nM incubated for 24 hrs by wound healing assay (reference value: 100%)", "format": "functional", "set-up": "scale not given: the % may be the effect or the level left"}, "Tubulin (Homo sapiens)": {"target": "Tubulin (Homo sapiens) (UniProt P68371+Q9H4B7+P0DPH7+P68366+Q13509+Q71U36+P04350+Q3ZCM7+P07437+P68363+Q9BQE3+Q6PEY2+Q13885+Q9BVA1+Q9BUF5)", "experiment": "Inhibition of tubulin polymerization (unknown origin) assessed as reduction in optical density at 340 nm at 20 uM relative to control", "format": "protein-complex assay"}, "SK-OV-3 [29]": {"tested_on": "SK-OV-3", "experiment": "Inhibition of cell migration in human SK-OV-3 cells assessed as wound closure ratio at 6.25 nM incubated for 24 hrs by wound healing assay (reference value: 100%)", "format": "functional", "set-up": "scale not given: the % may be the effect or the level left"}, "SK-OV-3 [30]": {"tested_on": "SK-OV-3", "experiment": "Inhibition of cell migration in human SK-OV-3 cells assessed as wound closure ratio at 12.5 nM incubated for 24 hrs by wound healing assay (reference value: 100%)", "format": "functional", "set-up": "scale not given: the % may be the effect or the level left"}, "SK-OV-3 [31]": {"tested_on": "SK-OV-3", "experiment": "Inhibition of cell migration in human SK-OV-3 cells assessed as area of migrated cells at 2.5 nM incubated for 24 hrs by crystal violet staining based inverted microscopic analysis (reference value: 30.1 +/- 1.3 mm^3)", "format": "functional"}}, "note": "Calls of active or inactive are those of the source. No cut-off for these calls is given here.", "data": [{"smiles": "CNc1nc(N2CCCc3cc(OC)ccc32)c2cc(F)ccc2n1", "values": [{"measurement": "Activity", "setting": "MCF7 [1]", "value": 32.2, "unit": "%"}, {"measurement": "Activity", "setting": "[2]", "value": "Toxic"}, {"measurement": "Activity", "setting": "SK-OV-3 [3]", "value": "Active"}, {"measurement": "Activity", "setting": "SK-OV-3 [4]", "value": 62.9, "unit": "%"}, {"measurement": "Activity", "setting": "MCF7 [5]", "value": "inactive"}, {"measurement": "inhibition in vivo at 5 mg/kg", "setting": "SK-OV-3 [6]", "value": 34.1, "unit": "%"}, {"measurement": "inhibition", "setting": "SK-OV-3 [7]", "value": "Dose-dependent-effect"}, {"measurement": "Activity", "setting": "SK-OV-3 [8]", "value": "Active"}, {"measurement": "IC50", "setting": "MCF7 [9]", "value": 0.4, "unit": "nM"}, {"measurement": "Activity", "setting": "SK-OV-3 [10]", "value": "Active"}, {"measurement": "Activity", "setting": "MCF7 [11]", "value": 43.3, "unit": "%"}, {"measurement": "Activity", "setting": "SK-OV-3 [12]", "value": 22.7, "unit": "%"}, {"measurement": "inhibition", "setting": "MCF7 [13]", "value": "Active; Increase In Cell Density Was Notably Slowed Down"}, {"measurement": "Activity", "setting": "[14]", "value": "Non-toxic"}, {"measurement": "Activity", "setting": "[15]", "value": "Toxic"}, {"measurement": "Activity", "setting": "MCF7 [16]", "value": 17.5, "unit": "mm3"}, {"measurement": "Activity", "setting": "MCF7 [17]", "value": "Active"}, {"measurement": "Activity", "setting": "SK-OV-3 [18]", "value": "inactive"}, {"measurement": "Activity", "setting": "SK-OV-3 [19]", "value": "Dose-dependent-effect"}, {"measurement": "IC50", "setting": "MDA-MB-231", "value": 1, "unit": "nM"}, {"measurement": "Activity", "setting": "SK-OV-3 [20]", "value": "Active"}, {"measurement": "Activity", "setting": "MCF7 [21]", "value": "inactive"}, {"measurement": "Activity", "setting": "[22]", "value": "Non-toxic"}, {"measurement": "Activity", "setting": "MCF7 [23]", "value": 46.5, "unit": "%"}, {"measurement": "Activity", "setting": "SK-OV-3 [24]", "value": "inactive"}, {"measurement": "inhibition", "setting": "MCF7 [25]", "value": "Active"}, {"measurement": "Activity", "setting": "SK-OV-3 [26]", "value": 11.9, "unit": "%"}, {"measurement": "Activity", "setting": "[27]", "value": "Toxic"}, {"measurement": "Activity", "setting": "MCF7 [28]", "value": 98.8, "unit": "%"}, {"measurement": "inhibition", "setting": "Tubulin (Homo sapiens)", "value": 100, "unit": "%"}, {"measurement": "Activity", "setting": "SK-OV-3 [29]", "value": 84.3, "unit": "%"}, {"measurement": "Activity", "setting": "SK-OV-3 [30]", "value": 65.8, "unit": "%"}, {"measurement": "Activity", "setting": "SK-OV-3 [31]", "value": 18.9, "unit": "mm3"}]}]}
